These results are taken from patent US7026318B2 (Shionogi & Co., Ltd., priority 2000, dated 2006).

Series [1] concerns the target human type I enzyme (sPLA2) (Homo sapiens, UniProt P04054). As to the kind of experiment: Inhibition test of human secretory phospholipase A2, chromogenic assay, type I enzyme. Type of series: biochemical.
Series [2] concerns the target T1, human type X sPLA2 (Homo sapiens, UniProt O15496).
T1 construct: made in house; unpurified culture supernatant
T1 sequence (O15496 43-165): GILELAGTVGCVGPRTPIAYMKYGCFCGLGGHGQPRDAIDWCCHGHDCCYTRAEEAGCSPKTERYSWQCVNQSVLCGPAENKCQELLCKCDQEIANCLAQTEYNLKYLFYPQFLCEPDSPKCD
As to the kind of experiment: Inhibition test of human secretory phospholipase A2, chromogenic assay, type X enzyme. Type of series: biochemical.

The target of another series is T2, human type V sPLA2 (Homo sapiens, UniProt P39877).
T2 construct: made in house; unpurified culture supernatant
T2 sequence (P39877 21-138): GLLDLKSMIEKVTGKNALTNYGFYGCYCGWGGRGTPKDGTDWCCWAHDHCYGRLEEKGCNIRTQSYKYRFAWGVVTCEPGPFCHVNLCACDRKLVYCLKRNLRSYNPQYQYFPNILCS
As to the kind of experiment: Inhibition test of human secretory phospholipase A2, chromogenic assay, type V enzyme. Format: biochemical.

Series [3] concerns the target T3, human type II enzyme (sPLA2) (Homo sapiens, UniProt P14555).
T3 sequence (P14555 21-144): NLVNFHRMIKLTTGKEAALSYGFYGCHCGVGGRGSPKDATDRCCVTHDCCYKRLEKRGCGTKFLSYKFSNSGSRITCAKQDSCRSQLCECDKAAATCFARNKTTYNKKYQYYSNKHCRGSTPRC
Kind of series: Inhibition test of human secretory phospholipase A2, chromogenic assay, type II enzyme. Type of series: biochemical.

Series [4] has as its target T1, human type X sPLA2. Kind of series: Type X sPLA2-induced fatty acid release from isolated human lipoproteins (LDL). Particulars: read-out: % of Inhibition (10 μM). Type of series: biochemical. As to the method:
Examination 17: Effects of sPLA2 Inhibitors on Type X sPLA2-Induced Fatty Acid Release From Isolated Human Lipoproteins.
LDL was isolated from human plasma by sequential ultracentrifugation method (Havel et al. J. Clin. Invest. 34,1345–1353 (1955)). LDL (0.5 mg/mL) was incubated with 10 nmol/L of human type X sPLA2 in the assay mixture containing 12.5 mmol/L Tris-HCl buffer (pH 8.0), 125 mg/L bovine serum albumin and 1 mmol/L calcium chloride for 4 hr at 37° C. Fatty acids released from lipoprotein were extracted by Dole's method (Dole et al. J. Biol. Chem. 235, 2595–2599 (1960)), labeled with 9-anthryldiazomethane according to a known method (Hanasaki et al., J. Biol. Chem. 274, 34203–34211 (1999)) and measured by detecting the fluorescence of labeled fatty acids using reverse-phase high performance chromatography (LiChroCART 125-4 Superspher 100 RP-18 column (Merck). For the inhibition assay of drugs, sPLA2 inhibitors (final concentration of 10 μM) were added at almost the same time as the addition of sPLA2 into the reaction solution. The results are presented in Table 10.

The target of series [5] is T1, human type X sPLA2. As to the kind of experiment: Human type X sPLA2-induced oleic acid release in human colon carcinoma HT-29 cells. Type of series: cell-based. The conditions noted are these: compound 10 μM, 100 nM human type X sPLA2, 30 min, percentage of the increase by type X sPLA2 (no treatment group = 100). As to the method: Examination 15: Effects of sPLA2 Inhibitors on Human Type X sPLA2-Induced Oleic Acid Release in Human Colon Calcinoma Cell Lines, HT-29 Cells.
Human colon calcinoma cell lines, HT-29 cells (obtained from ATCC) were cultured in DMEM supplemented with 10% fetal calf serum. The cells were washed by phosphate-buffered saline (PBS), detached from culture plates by treatment with trypsin/EDTA solution and further washed by PBS. The resulting cells were resuspended in Hanks' buffered saline containing 0.1% bovine serum albumin (BSA) at a density of 12.5×10^6 cells/mL. Aliquots of the cell suspension (0.4 ml) were transferred into polypropylene tubes and test compounds dissolved in DMSO solution (final concentration; 10 μM) were added. After preincubation for 10 min at 37° C., 100 nM purified human type X sPLA2 enzyme (Hanasaki et al J. Biol. Chem. (1999) 274, 34203–34211) was added (final volume of 0.5 mL). After incubation for 30 min at 37° C., the reaction was stopped by the addition of 2 ml Dole's reagent (heptane:2-propanol:1M H2SO4=10:40:1, v/v/v).

The target in series [6] is T1, human type X sPLA2. As to the kind of experiment: Type X sPLA2-induced PGE2 production in human colon carcinoma HT-29 cells. Format: cell-based. Particulars: compound 10 μM; TNF-α-treated HT-29 cells; 100 nM human type X sPLA2, 3 h; percentage of PGE2 produced by type X sPLA2 (no treatment group = 100). As to the method:
Examination 16: Effects of sPLA2 Inhibitors on Type X sPLA2-Induced PGE2 Production in Human Colon Carcinoma Cell Lines, HT-29 Cells.
HT-29 cells were seeded into 24-well plates at a density of 2.5×10^5 cells/well. After incubation for 24 h, the cells were washed three times with PBS and incubated with 30 ng/mL of recombinant human tumor necrosis factor-α (R&D Systems, Inc.) in DMEM medium supplemented with 10% fetal bovine serum for 18 h at 37° C. After washing with PBS, the cells were preincubated with or without test compounds (at a final concentration of 10 μM; dissolved in DMSO) in Hanks' buffered saline containing 0.1% BSA for 10 min at 37° C., and then stimulated with 100 nM purified human type X sPLA2 enzyme in a final volume of 0.5 mL. After incubation for 3 h at 37° C, the culture supernatant was collected following the centrifugation for the removal of floating cells, and its PGE2 content was quantified with an enzyme-immunoassay kit (Cayman Chemicals Co.). From each data, the value in the absence of type X sPLA2 was subtracted. The amount of PGE2 in the presence of each test compound was expressed as the percentage of the PGE2 content produced by the addition of type X sPLA2 enzyme.

Setting [7] is: compound 10 μM, human LDL 0.5 mg/mL, 10 nmol/L human type X sPLA2, 4 hr at 37° C.

Read-outs that look alike come from different tables or passages of the source.

Sequence of human type I enzyme (sPLA2) (P04054 23-148): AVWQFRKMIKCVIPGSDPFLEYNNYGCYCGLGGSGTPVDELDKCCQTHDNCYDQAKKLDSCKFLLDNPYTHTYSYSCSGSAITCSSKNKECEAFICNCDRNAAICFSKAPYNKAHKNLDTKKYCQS

`CC(C)Cc1c(C(=O)C(N)=O)c2c(OCC(=O)NS(=O)(=O)c3ccccc3)cccc2n1Cc1ccc(F)cc1` [Compound I-22] yielded a melting point of 172 to 173 °C. In series [1], the concentration for half-maximal inhibition (IC50) was > 700 nM. The molecule further displayed an IC50 against human type X sPLA2 [2] of 8 nM. Moreover, the IC50 at human type V sPLA2 is > 1000 nM. For the same molecule, the IC50 in series [3] is > 1000 nM. Further, on human type X sPLA2 [4], the inhibition at 10 µM came out at 91.7%.
Regarding `CC(C)Cc1c(C(=O)C(N)=O)c2c(OCC(=O)NS(=O)(=O)C(F)(F)F)cccc2n1Cc1ccccc1` [Compound I-30], on human type X sPLA2 [4] (setting [7]), the inhibition at 10 µM was 97.5%.
For `CC(C)Cc1c(C(=O)C(N)=O)c2c(OCC(=O)O)cccc2n1Cc1ccccc1` [Compound I-10], the IC50 in series [1] (recombinant human sPLA2 type I, chromogenic assay, 30 min, read-out: IC50 type I) is > 700 nM; against human type X sPLA2 [2], 13 nM; on human type V sPLA2 (human sPLA2 type V (CHO supernatant), chromogenic assay, 45 min, read-out: IC50 type V), > 1000 nM; in series [3] (human sPLA2 type II, chromogenic assay, 30 min, read-out: IC50 type II) it was > 1000 nM. Also, the Oleic acid release on human type X sPLA2 [5] was −0.2 ± 5.7 %. Besides, at human type X sPLA2 [6], the PGE2 production is listed as −12.7 ± 7.9 %. At human type X sPLA2 [4] (setting [7]), the inhibition at 10 µM is 91.3%.

Usually IC50 stands for the midpoint of a concentration-inhibition curve. As usually defined, the melting point is the temperature, or range, at which the solid turns liquid. Broadly, the inhibition is how much of the control response was suppressed.
